Experimental data from ChEMBL document CHEMBL3638458, “Amine substituted methanesulfonamide derivatives as vanilloid receptor ligands” (2014).

target: Transient receptor potential cation channel subfamily V member 1 (Homo sapiens, UniProt Q8NER1); experiment: FLIPR Assay: The FLIPR protocol consists of 2 substance additions. First the compounds to be tested (10 μM) are pipetted onto the cells and the Ca2+ influx is compared with the control (capsaicin 10 μM). This provides the result in % activation based on the Ca2+ signal after the addition of 10 μM of capsaicin (CP). After 5 minutes incubation, 100 nM of capsaicin are applied and the Ca2+ influx is also determined. Desensitising agonists and antagonists lead to suppression of the Ca2+ influx. The % inhibition is calculated compared to the maximum achievable inhibition with 10 μM of capsazepine. Starting from the percentage displacement caused by different concentrations of the compounds to be tested of general formula I, IC50 inhibitory concentrations which cause a 50-percent displacement of capsaicin were calculated. K1 values for the test substances were obtained by conversion by means of the Cheng-Prusoff equation (Cheng, Prusoff; Biochem. Pharmacol. 22, 3099-3108, 1973).
Sequence (Q8NER1 whole entry): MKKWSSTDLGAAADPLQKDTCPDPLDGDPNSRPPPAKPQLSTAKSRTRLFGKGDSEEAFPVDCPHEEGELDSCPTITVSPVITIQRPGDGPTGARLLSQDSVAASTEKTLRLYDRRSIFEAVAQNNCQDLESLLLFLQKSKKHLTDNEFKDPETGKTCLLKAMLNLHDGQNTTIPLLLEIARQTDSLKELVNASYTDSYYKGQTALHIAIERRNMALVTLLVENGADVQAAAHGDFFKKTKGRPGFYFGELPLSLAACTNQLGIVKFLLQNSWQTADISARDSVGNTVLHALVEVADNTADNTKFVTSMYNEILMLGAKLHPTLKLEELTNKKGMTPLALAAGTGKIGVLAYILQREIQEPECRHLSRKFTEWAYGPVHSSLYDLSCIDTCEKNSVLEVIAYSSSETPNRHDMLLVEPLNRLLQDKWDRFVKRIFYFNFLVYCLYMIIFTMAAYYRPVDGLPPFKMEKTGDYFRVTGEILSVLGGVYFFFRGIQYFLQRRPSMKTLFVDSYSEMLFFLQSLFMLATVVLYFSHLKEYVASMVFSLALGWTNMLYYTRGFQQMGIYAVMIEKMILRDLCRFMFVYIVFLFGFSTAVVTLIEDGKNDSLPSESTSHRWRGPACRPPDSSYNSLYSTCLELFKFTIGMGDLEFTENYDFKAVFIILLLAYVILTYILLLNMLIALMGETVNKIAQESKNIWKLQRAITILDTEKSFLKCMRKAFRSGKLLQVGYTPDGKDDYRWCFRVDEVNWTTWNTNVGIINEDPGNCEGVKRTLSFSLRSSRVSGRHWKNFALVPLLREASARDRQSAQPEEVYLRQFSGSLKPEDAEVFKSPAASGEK

For `Cc1cc(C(C)C(=O)NCc2ccc(C(F)(F)F)nc2N2CCCC2)ccc1CNS(C)(=O)=O` (centres undefined), which Ki is on record?
Its Ki is 50 nM.

`CC1CCN(c2nc(C(F)(F)F)ccc2CNC(=O)C(C)c2cccc(CNS(C)(=O)=O)c2)CC1` (centres undefined) was tested. Which Ki did it give?
Its Ki is 102 nM.

For `CC(C(=O)NCc1ccc(C(F)(F)F)nc1N1CCCC1)c1ccc(CNS(C)(=O)=O)cc1` (centres undefined), which Ki is on record?
The Ki was 20 nM.

With `CCS(=O)(=O)NCc1ccc(C(C)C(=O)NCc2ccc(C(F)(F)F)nc2N2CCC(C)CC2)cc1F` (centres undefined) as the compound, how does the Ki read?
Its Ki is 4 nM.
